Source: US10568879B2 (GALAPAGOS NV, priority 2015, dated 2020)
pIC50: −log10 of the molar value.

Target: T1, GPR84 (Homo sapiens, UniProt Q9NQS5)
T1 construct: expressed in transfected cells
Assay: GPR84 [35S]GTPγS binding assay
Format: biochemical
Conditions: 3,3′-diindolylmethane at EC80; membranes from stable cell line over expressing GPR84
Procedure: The following assay can be used for determination of GPR84 activation. The [^35S]GTPγS binding assay measures the level of G protein activation following agonist occupation of a GPCR, by determining the binding of the non-hydrolysable analog [^35S]GTPγS to Gα subunits.
The assay is performed in a 96-well plate where the following reagents are added. First 50 μL compound is added into the assay plate, followed by addition of 20 μL 3,3′-diindolylmethane at EC80 concentration (concentration which gives 80% of the activity of GPR84). Then, 30 μL of a mixture consisting of membranes-GTPγS-SpA beads is added [mixture consists of 20 μg/well membranes derived from stable cell line over expressing GPR84 (membranes are pre-incubated with 0.1 μM GDP for 15 min at 4° C.), 0.1 nM [^35S]GTPγS (Perkin Elmer, NEG030) and 0.5 mg/well PVT-WGA SpA beads (Perkin Elmer, RPNQ0001)]. All components are diluted in assay buffer containing 20 mM Tris pH 7.5; 5 mM MgCl2; 250 mM NaCl; 0.05% BSA; 75 μg/mL saponin. After an incubation of 90 min at room temperature, 20 μL CsCl2 0.8 M (MP Biomedicals, 02150589) is added, followed by centrifugation at 2000 rpm during 20 min. Plates are read on a topcount reader (perkin elmer) immediately after centrifugation (readout time, 1 min/well).

T1 sequence (Q9NQS5 whole entry): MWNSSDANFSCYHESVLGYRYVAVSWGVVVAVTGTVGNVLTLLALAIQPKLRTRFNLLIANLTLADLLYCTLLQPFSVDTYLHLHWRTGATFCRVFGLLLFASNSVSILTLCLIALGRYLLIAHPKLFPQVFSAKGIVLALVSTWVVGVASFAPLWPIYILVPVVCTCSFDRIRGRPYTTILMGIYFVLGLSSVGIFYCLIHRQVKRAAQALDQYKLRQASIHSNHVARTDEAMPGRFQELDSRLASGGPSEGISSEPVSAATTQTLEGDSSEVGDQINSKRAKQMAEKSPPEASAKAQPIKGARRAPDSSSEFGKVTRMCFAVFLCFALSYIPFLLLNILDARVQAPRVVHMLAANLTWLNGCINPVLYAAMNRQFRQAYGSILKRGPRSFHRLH

Compound	pIC50
Cc1c2n(c(OC[C@@H]3COCCO3)cc1=O)CCc1cc(N3CCC(C(F)(F)F)CC3)ccc1-2 [Compound 140, 4-[[(2S)-1,4-dioxan-2-yl]methoxy]-1-methyl-9-[4-(trifluoromethyl)-1-piperidyl]-6,7-dihydrobenzo[a]quinolizin-2-one]	7.00 to 11.00
Cc1c2n(c(OC[C@@H]3COCCO3)cc1=O)CCc1cc(N3CCC(C)CC3)ccc1-2 [Compound 141, 4-[[(2S)-1,4-dioxan-2-yl]methoxy]-1-methyl-9-(4-methyl-1-piperidyl)-6,7-dihydrobenzo[a]quinolizin-2-one]	7.00 to 11.00
Cc1c2n(c(OC[C@@H]3COCCO3)cc1=O)CCc1cc(NCC(F)(F)F)ccc1-2 [Compound 142, 4-[[(2S)-1,4-dioxan-2-yl]methoxy]-1-methyl-9-(2,2,2-trifluoroethylamino)-6,7-dihydrobenzo[a]quinolizin-2-one]	7.00 to 11.00
Cc1c2n(c(OC[C@@H]3COCCO3)cc1=O)CCc1cc(N3CCCCC3C)ccc1-2 (stereo partly drawn) [Compound 143, 4-[[(2S)-1,4-dioxan-2-yl]methoxy]-1-methyl-9-(2-methyl-1-piperidyl)-6,7-dihydrobenzo[a]quinolizin-2-one]	7.00 to 11.00
Cc1c2n(c(OC[C@@H]3COCCO3)cc1=O)CCc1cc(OC3CCN(C(=O)C4CC4)C3)ccc1-2 (stereo partly drawn) [Compound 144, 9-[1-(cyclopropanecarbonyl)pyrrolidin-3-yl]oxy-4-[[(2S)-1,4-dioxan-2-yl]methoxy]-1-methyl-6,7-dihydrobenzo[a]quinolizin-2-one]	6.30 to 7.00
CCOC(=O)N1CCC(Oc2ccc3c(c2)CCn2c(OC[C@@H]4COCCO4)cc(=O)c(C)c2-3)C1 (stereo partly drawn) [Compound 145, ethyl 3-[[4-[[(2S)-1,4-dioxan-2-yl]methoxy]-1-methyl-2-oxo-6,7-dihydrobenzo[a]quinolizin-9-yl]oxy]pyrrolidine-1-carboxylate]	7.00 to 11.00
Cc1c2n(c(OC[C@@H]3COCCO3)cc1=O)CCc1cc(C3CN(C(=O)C4CC4)C3)ccc1-2 [Compound 146, 9-[1-(cyclopropanecarbonyl)azetidin-3-yl]-4-[[(2S)-1,4-dioxan-2-yl]methoxy]-1-methyl-6,7-dihydrobenzo[a]quinolizin-2-one]	6.00 to 6.30
CCOC(=O)N1CC(c2ccc3c(c2)CCn2c(OC[C@@H]4COCCO4)cc(=O)c(C)c2-3)C1 [Compound 147, ethyl 3-[4-[[(2S)-1,4-dioxan-2-yl]methoxy]-1-methyl-2-oxo-6,7-dihydrobenzo[a]quinolizin-9-yl]azetidine-1-carboxylate]	7.00 to 11.00
Cc1c2n(c(OC[C@@H]3COCCO3)cc1=O)CCc1cc(C3CN(C(=O)N(C)C)C3)ccc1-2 [Compound 148, 3-[4-[[(2S)-1,4-dioxan-2-yl]methoxy]-1-methyl-2-oxo-6,7-dihydrobenzo[a]quinolizin-9-yl]-N,N-dimethyl-azetidine-1-carboxamide]	6.00 to 6.30
Cc1c2n(c(OC[C@@H]3COCCO3)cc1=O)CCc1cc(C3CN(C(=O)NC(C)C)C3)ccc1-2 [Compound 149, 3-[4-[[(2S)-1,4-dioxan-2-yl]methoxy]-1-methyl-2-oxo-6,7-dihydrobenzo[a]quinolizin-9-yl]-N-isopropyl-azetidine-1-carboxamide]	6.00 to 6.30
Cc1c2n(c(OC[C@@H]3COCCO3)cc1=O)CCc1cc(OC3CN(C(=O)N(C)C)C3)ccc1-2 [Compound 150, 3-[[4-[[(2S)-1,4-dioxan-2-yl]methoxy]-1-methyl-2-oxo-6,7-dihydrobenzo[a]quinolizin-9-yl]oxy]-N,N-dimethyl-azetidine-1-carboxamide]	6.00 to 6.30
Cc1c2n(c(OC[C@@H]3COCCO3)cc1=O)CCc1cc(OC3CN(C(=O)NC(C)C)C3)ccc1-2 [Compound 151]	6.00 to 6.30
Cc1c2n(c(OCC3CC(C)(C)O3)cc1=O)CCc1cc(OCc3ccccc3)ccc1-2 (stereo not drawn) [Compound 152, 9-benzyloxy-4-[(4,4-dimethyloxetan-2-yl)methoxy]-1-methyl-6,7-dihydrobenzo[a]quinolizin-2-one]	6.30 to 7.00

Now from value to compound:

pIC50	Compound
7.00 to 11.00	Cc1c2n(c(OC[C@@H]3COCCO3)cc1=O)CCc1cc(N(C)CCC(F)(F)F)ccc1-2 [Compound 129, 4-[[(2S)-1,4-dioxan-2-yl]methoxy]-1-methyl-9-[methyl(3,3,3-trifluoropropyl)amino]-6,7-dihydrobenzo[a]quinolizin-2-one]
7.00 to 11.00	Cc1c2n(c(OC[C@@H]3COCCO3)cc1=O)CCc1cc(N3CCCC3)ccc1-2 [Compound 130, 4-[[(2S)-1,4-dioxan-2-yl]methoxy]-1-methyl-9-pyrrolidin-1-yl-6,7-dihydrobenzo[a]quinolizin-2-one]
7.00 to 11.00	Cc1c2n(c(OC[C@@H]3COCCO3)cc1=O)CCc1cc(N3CCC(F)(F)C3)ccc1-2 [Compound 131, 9-(3,3-difluoropyrrolidin-1-yl)-4-[[(2S)-1,4-dioxan-2-yl]methoxy]-1-methyl-6,7-dihydrobenzo[a]quinolizin-2-one]
7.00 to 11.00	Cc1c2n(c(OC[C@@H]3COCCO3)cc1=O)CCc1cc(N3CC(C(F)(F)F)C3)ccc1-2 [Compound 132, 4-[[(2S)-1,4-dioxan-2-yl]methoxy]-1-methyl-9-[3-(trifluoromethyl)azetidin-1-yl]-6,7-dihydrobenzo[a]quinolizin-2-one]
7.00 to 11.00	Cc1c2n(c(OC[C@@H]3COCCO3)cc1=O)CCc1cc(N3CC=C(C(F)(F)F)CC3)ccc1-2 [Compound 133, 4-[[(2S)-1,4-dioxan-2-yl]methoxy]-1-methyl-9-[4-(trifluoromethyl)-3,6-dihydro-2H-pyridin-1-yl]-6,7-dihydrobenzo[a]quinolizin-2-one]
7.00 to 11.00	Cc1c2n(c(OC[C@@H]3COCCO3)cc1=O)CCc1cc(N3CCC[C@H]3C)ccc1-2 [Compound 134, 4-[[(2S)-1,4-dioxan-2-yl]methoxy]-1-methyl-9-[(2R)-2-methylpyrrolidin-1-yl]-6,7-dihydrobenzo[a]quinolizin-2-one]
7.00 to 11.00	Cc1c2n(c(OC[C@@H]3COCCO3)cc1=O)CCc1cc(N3CCCC(F)C3)ccc1-2 (stereo partly drawn) [Compound 135, 4-[[(2S)-1,4-dioxan-2-yl]methoxy]-9-(3-fluoro-1-piperidyl)-1-methyl-6,7-dihydrobenzo[a]quinolizin-2-one]
7.00 to 11.00	Cc1c2n(c(OC[C@@H]3COCCO3)cc1=O)CCc1cc(-n3c4ccccc4c4ccccc43)ccc1-2 [Compound 136, 9-carbazol-9-yl-4-[[(2S)-1,4-dioxan-2-yl]methoxy]-1-methyl-6,7-dihydrobenzo[a]quinolizin-2-one]
7.00 to 11.00	Cc1c2n(c(OC[C@@H]3COCCO3)cc1=O)CCc1cc(N3CC(C)CC(C)C3)ccc1-2 (stereo partly drawn) [Compound 137, 9-(3,5-dimethyl-1-piperidyl)-4-[[(2S)-1,4-dioxan-2-yl]methoxy]-1-methyl-6,7-dihydrobenzo[a]quinolizin-2-one]
7.00 to 11.00	Cc1c2n(c(OC[C@@H]3COCCO3)cc1=O)CCc1cc(N3CCC(C)(C)C3)ccc1-2 [Compound 138, 9-(3,3-dimethylpyrrolidin-1-yl)-4-[[(2S)-1,4-dioxan-2-yl]methoxy]-1-methyl-6,7-dihydrobenzo[a]quinolizin-2-one]
7.00 to 11.00	Cc1c2n(c(OC[C@@H]3COCCO3)cc1=O)CCc1cc(N3CCC(C)(C)CC3)ccc1-2 [Compound 139, 9-(4,4-dimethyl-1-piperidyl)-4-[[(2S)-1,4-dioxan-2-yl]methoxy]-1-methyl-6,7-dihydrobenzo[a]quinolizin-2-one]
